System: pilocarpine induced-seizures
Assay: Pilocarpine induced-seizure (PIS) model
Assay type: in vivo
Details: uracils in the Pilocarpine model; scale maximum = 4
Protocol: Pilocarpine Induced-seizure (PIS) Model
All test compounds are normally dissolved in a mixture of saline (NaCl 0.9% by mass) and 10% DMSO. However, in case of solubility problems, the concentration of DMSO may be increased to a maximum of 50%. This biological test is performed following the procedure disclosed in PCT publication WO 98/40055 (Queen's University at Kingston).

Row | SMILES | Relative Activity (Maximum = 4)
1 | O=c1cc[nH]c(=O)[nH]1 [Compound P1, 1H-pyrimidine-2,4-dione] | Active - +2
2 | Cc1c[nH]c(=O)[nH]c1=O [Compound P2, 5-methyl-1H-pyrimidine-2,4-dione] | Active - +2
3 | O=c1[nH]cc(CO)c(=O)[nH]1 [Compound P3, 5-hydroxymethyl-1H-pyrimidine-2,4-dione] | Active - +3
4 | O=c1[nH]cc(O)c(=O)[nH]1 [Compound P4, 5-hydroxy-1H-pyrimidine-2,4-dione] | Active - +2
5 | O=c1[nH]cc(Br)c(=O)[nH]1 [Compound P5, 5-bromo-1H-pyrimidine-2,4-dione] | Active - +1
6 | O=c1[nH]cc(I)c(=O)[nH]1 [Compound P6, 5-iodo-1H-pyrimidine-2,4-dione] | Active - +1
7 | Cc1cc(=O)[nH]c(=O)[nH]1 [Compound P7, 6-methyl-1H-pyrimidine-2,4-dione] | Active - +3
8 | Cc1[nH]c(=O)[nH]c(=O)c1Br [Compound P8, 5-bromo-6-methyl-1H-pyrimidine-2,4-dione] | Active - +2
9 | Cc1[nH]c(=O)[nH]c(=O)c1[N+](=O)[O-] [Compound P9, 6-methyl-5-nitro-1H-pyrimidine-2,4-dione] | Active - +2
10 | Nc1c(C(=O)O)[nH]c(=O)[nH]c1=O [Compound P10, 5-amino-2,6-dioxo-1,2,3,6-tetrahydro-pyrimidine-4-carboxylic acid] | Minimally Active
11 | O=C(O)c1cc(=O)[nH]c(=O)[nH]1 [Compound P11, 2,6-dioxo-1,2,3,6-tetrahydro-pyrimidine-4-carboxylic acid] | Active - +2
12 | O=C(O)c1c[nH]c(=O)[nH]c1=O [Compound P12, 2,4-dioxo-1,2,3,4-tetrahydro-pyrimidine-5-carboxylic acid] | Active - +2
13 | Cn1cc([N+](=O)[O-])c(=O)n(C)c1=O [Compound P13, 1,3-dimethyl-5-nitro-1H-pyrimidine-2,4-dione] | Minimally Active
14 | Cc1[nH]c(=O)[nH]c(=O)c1C [Compound P14, 5,6-dimethyl-1H-pyrimidine-2,4-dione] | Active - +2
15 | CCCCc1cc2c[nH]c(=O)nc2o1 [Compound P17, 6-butyl-3H-furo[2,3-d]pyrimidin-2-one] | Active - +1
16 | CCCCC#Cc1c[nH]c(=O)[nH]c1=O [Compound P18, 5-hex-1-ynyl-1H-pyrimidine-2,4-dione] | Active - +1
17 | Cc1cn(C2CC(O)C(CO)O2)c(=O)[nH]c1=O (stereo not drawn) [Compound P19, 1-(4-hydroxy-5-hydroxymethyl-tetrahydro-furan-2-yl)-5-methyl-1H-pyrimidine-2,4-dione] | Minimally Active
18 | CCC(C)n1cc(Br)c(=O)[nH]c1=O (stereo not drawn) [Compound P20, 5-bromo-1-sec-butyl-1H-pyrimidine-2,4-dione] | Active - +1

Row | SMILES | Relative Activity (Maximum = 4)
19 | CC(C)n1cc(Br)c(=O)[nH]c1=O [Compound P21, 5-bromo-1-isopropyl-1H-pyrimidine-2,4-dione] | Active - +1
20 | O=c1[nH]c(=O)n(Cc2ccccc2)cc1Br [Compound P22, 1-benzyl-5-bromo-1H-pyrimidine-2,4-dione] | Active - +1
21 | O=c1[nH]c(=O)n(CC2CCCCC2)cc1Br [Compound P23, 5-bromo-1-cyclohexylmethyl-1H-pyrimidine-2,4-dione] | Minimally Active
22 | O=c1c(Br)cn(CC2CCCCC2)c(=O)n1CC1CCCCC1 [Compound P24, 5-bromo-1,3-bis-cyclohexylmethyl-1H-pyrimidine-2,4-dione] | Minimally Active
23 | O=c1c(Br)cn(Cc2ccc([N+](=O)[O-])cc2)c(=O)n1Cc1ccc([N+](=O)[O-])cc1 [Compound P25, 5-bromo-1,3-bis-(4-nitro-benzyl)-1H-pyrimidine-2,4-dione] | Active - +2
24 | O=c1ccn(Cc2ccccc2)c(=O)[nH]1 [Compound P26, 1-benzyl-1H-pyrimidine-2,4-dione] | Active - +2
25 | Cc1cc(=O)[nH]c(=O)n1Cc1ccccc1 [Compound P27, 1-benzyl-6-methyl-1H-pyrimidine-2,4-dione] | Active - +2
26 | CSCc1c[nH]c(=O)[nH]c1=O [Compound P31, 5-methylsulfanylmethyl-1H-pyrimidine-2,4-dione] | Minimally Active
27 | O=c1[nH]c(=O)n(Cc2ccccc2)cc1I [Compound P32, 1-benzyl-5-iodo-1H-pyrimidine-2,4-dione] | Active +1
28 | Cc1cc(=O)n(Cc2ccc([N+](=O)[O-])cc2)c(=O)n1Cc1ccc([N+](=O)[O-])cc1 [Compound P33, 6-methyl-1,3-bis-(4-nitro-benzyl)-1H-pyrimidine-2,4-dione] | Active +2
29 | Cn1ccc(=O)[nH]c1=O [Compound P34, 1-methyl-1H-pyrimidine-2,4-dione] | Minimally Active
30 | Cn1ccc(=O)n(C)c1=O [Compound P35, 1,3-dimethyl-1H-pyrimidine-2,4-dione] | Active +3
31 | CC(C)n1ccc(=O)n(C(C)C)c1=O [Compound P36, 1,3-diisopropyl-1H-pyrimidine-2,4-dione] | Active +2
32 | O=c1ccn(CCCO)c(=O)n1CCCO [Compound P37, 1,3-bis-(3-hydroxy-propyl)-1H-pyrimidine-2,4-dione] | Active +2
33 | NN1C(=O)CCN(Cc2ccccc2)C1=O [Compound P38, 3-amino-1-benzyl-dihydro-pyrimidine-2,4-dione] | Active +2
34 | CC1CC(=O)N(N)C(=O)N1Cc1ccccc1 (stereo not drawn) [Compound P39, 3-amino-1-benzyl-6-methyl-dihydro-pyrimidine-2,4-dione] | Active +3
35 | NC(=O)c1cnn(-c2cccc(N)c2)c1 [Compound P42, 1-(3-amino-phenyl)-1H-pyrazole-4-carboxylic acid amide] | Active +2
36 | O=c1c(Cc2cn(Cc3ccccc3)c(=O)n(Cc3ccccc3)c2=O)cn(Cc2ccccc2)c(=O)n1Cc1ccccc1 [Compound P43] | Active +3
